From the NIST ThermoML archive (doi:10.1021/acs.jced.7b00026)
± gives the expanded uncertainty stated by the source.

Columns and labels:
[1] = refractive index (Na D-line) (dimensionless); details: 293.15 K; 101.33 kPa; Liquid; Standard Abbe refractometry
[2] = Liquid; for mass density: 293.15 K, 101.33 kPa, Vibrating tube method
[3] = Boiling temperature at pressure P; details: Liquid, Ebulliometric method (Recirculating still)

Row | Compound | refractive index [1] | mass density [2] [kg/m3] | vapor or sublimation pressure ([2]; 338.15 K, Ebullio) [kPa] | vapor or sublimation pressure ([2]; 353.15 K, Ebullio) [kPa] | vapor or sublimation pressure ([2]; 368.15 K, Ebullio) [kPa] | Boiling temperature at pressure P ([3]; 39.89 kPa) [°C] | Boiling temperature at pressure P ([3]; 69.89 kPa) [°C] | Boiling temperature at pressure P ([3]; 14.9 kPa) [°C] | Boiling temperature at pressure P ([3]; 29.9 kPa) [°C] | Boiling temperature at pressure P ([3]; 59.89 kPa) [°C] | Boiling temperature at pressure P ([3]; 79.88 kPa) [°C] | other results
1 | CC(=O)CC(C)C [4-methylpentan-2-one] | 1.39586 ± 0.00085 | 800.3 ± 1 | 17.57 ± 1.4 | 31.41 ± 2.4 | 54.04 ± 4.2 | 86.5 ± 0.2 | 103.21 ± 0.19 | – | – | – | – | vapor or sublimation pressure ([2]; 323.15 K, Ebullio): 9.22 ± 0.72 kPa; Boiling temperature at pressure P ([3]; 9.22 kPa): 49.67 ± 0.38 °C; Boiling temperature at pressure P ([3]; 9.9 kPa): 51.26 ± 0.38 °C; Boiling temperature at pressure P ([3]; 17.52 kPa): 64.70 ± 0.27 °C; Boiling temperature at pressure P ([3]; 18.41 kPa): 65.96 ± 0.27 °C; Boiling temperature at pressure P ([3]; 31.36 kPa): 79.73 ± 0.22 °C; Boiling temperature at pressure P ([3]; 32.13 kPa): 80.39 ± 0.22 °C; Boiling temperature at pressure P ([3]; 53.99 kPa): 95.31 ± 0.2 °C
2 | CCCO [propan-1-ol] | 1.38512 ± 0.00086 | 803.66 ± 1 | 25.92 ± 2 | 51 ± 4 | 93.92 ± 7.3 | 74.30 ± 0.2 | 87.44 ± 0.19 | 53.83 ± 0.23 | 67.97 ± 0.2 | 83.71 ± 0.19 | 90.76 ± 0.19 | Boiling temperature at pressure P ([3]; 25.89 kPa): 64.94 ± 0.23 °C; Boiling temperature at pressure P ([3]; 51.21 kPa): 79.99 ± 0.19 °C; Boiling temperature at pressure P ([3]; 93.89 kPa): 94.87 ± 0.19 °C; Boiling temperature at pressure P ([3]; 99.88 kPa): 96.46 ± 0.18 °C
3 | CC(C)O [propan-2-ol] | 1.37718 ± 0.00086 | 784.99 ± 1 | – | – | – | 60.83 ± 0.2 | 73.30 ± 0.19 | 41.28 ± 0.23 | 54.82 ± 0.2 | 69.8 ± 0.19 | 76.49 ± 0.19 | vapor or sublimation pressure ([2]; 323.15 K): 23.48 ± 1.8 kPa; vapor or sublimation pressure ([2]; 338.15 K): 48.45 ± 3.8 kPa; vapor or sublimation pressure ([2]; 353.15 K): 92.48 ± 7.2 kPa; Boiling temperature at pressure P ([3]; 23.43 kPa): 49.88 ± 0.22 °C; Boiling temperature at pressure P ([3]; 48.34 kPa): 64.99 ± 0.19 °C; Boiling temperature at pressure P ([3]; 92.4 kPa): 79.99 ± 0.18 °C; Boiling temperature at pressure P ([3]; 98.88 kPa): 81.67 ± 0.18 °C
